Experimental data taken from ChEMBL document CHEMBL4138163, “DMXAA-pyranoxanthone hybrids enhance inhibition activities against human cancer cells with multi-target functions” (Eur J Med Chem, 2018).
Active and inactive are the calls of the source. The calls are words filed in the database; no cut-off is given here.

How the values were obtained:
MCF7 [1] = assay: Antiproliferative activity against human MCF7 cells after 24 hrs by MTT assay; format: functional, cell-based; conditions: MCF7, 24 h
MDA-MB-231 [2] = assay: Antiproliferative activity against human MDA-MB-231 cells after 24 hrs by MTT assay; format: functional, cell-based; conditions: MDA-MB-231, 24 h
K562 [3] = assay: Antiproliferative activity against human K562 cells after 24 hrs by MTT assay; format: functional, cell-based; conditions: K562, 24 h
HepG2 [4] = assay: Antiproliferative activity against human HepG2 cells after 24 hrs by MTT assay; format: functional, cell-based; conditions: HepG2, 24 h
HepG2 [5] = assay: Induction of apoptosis in human HepG2 cells assessed as ratio of Bax/Bcl-2 at 0.2 uM after 24 hrs by Western blot method (reference value: 0.23); format: functional
HepG2 [6] = assay: Induction of apoptosis in human HepG2 cells assessed as increase in cleaved PARP levels at 0.2 uM after 24 hrs by Western blot method; format: functional, cell-based
NIH3T3 [7] = assay: Antiproliferative activity against mouse NIH/3T3 cells after 24 hrs by MTT assay; format: cell-based
[8] = Selectivity ratio of IC50 for human HL-7702 cells to IC50 for human HepG2 cells; format: functional
NIH3T3 [9] = assay: Antiproliferative activity against mouse NIH/3T3 cells after 48 hrs by MTT assay; format: cell-based; conditions: nih3t3, 48 h
[10] = Half life in Kunming mouse plasma at 10 uM by HPLC method; format: ADME, cell-free
[11] = molecular target: T1, Tumour suppressor p53/oncoprotein Mdm2 (Homo sapiens) (UniProt P04637+Q00987); assay: Inhibition of MDM2/p53 interaction in human HepG2 cells assessed as increase in p53 to MDM2 ratio at 0.2 uM after 24 hrs by Western blot method (reference value: 0.083); format: cell-based
L02 [12] = assay: Antiproliferative activity against human HL-7702 cells after 24 hrs by MTT assay; format: functional, cell-based; conditions: L02, 24 h
HepG2 [13] = assay: Induction of apoptosis in human HepG2 cells assessed as upregulation of Bid expression at 0.2 uM after 24 hrs by Western blot method; format: functional, cell-based
HepG2 [14] = assay: Induction of apoptosis in human HepG2 cells assessed as increase in cleaved caspase-9 levels at 0.2 uM after 24 hrs by Western blot method; format: functional, cell-based
L02 [15] = assay: Antiproliferative activity against human HL-7702 cells after 48 hrs by MTT assay; format: functional, cell-based; conditions: L02, 48 h
[16] = Half life in cell culture medium at 10 uM by HPLC method; format: physicochemical
HepG2 [17] = assay: Cell cycle arrest in human HepG2 cells assessed as accumulation at S phase at 0.2 uM after 28 hrs by propidium iodide staining-based flow cytometric method relative to control
HepG2 [18] = assay: Induction of apoptosis in human HepG2 cells assessed as increase in cleaved caspase-3 levels at 0.2 uM after 24 hrs by Western blot method; format: functional, cell-based
HepG2 [19] = assay: Induction of apoptosis in human HepG2 cells assessed as late apoptotic cells at 0.2 uM after 24 hrs by annexin-V/propidium iodide staining-based flow cytometric method relative to control; format: functional
HepG2 [20] = assay: Induction of apoptosis in human HepG2 cells assessed as early apoptotic cells at 0.2 uM after 24 hrs by annexin-V/propidium iodide staining-based flow cytometric method relative to control; format: functional
HepG2 [21] = assay: Induction of apoptosis in human HepG2 cells assessed as downregulation of Bcl-xL expression at 0.2 uM after 24 hrs by Western blot method; format: functional, cell-based
HepG2 [22] = assay: Antiproliferative activity against human HepG2 cells co-treated with DMXAA at 1:1 molar ratio after 24 hrs by MTT assay; format: functional, cell-based; conditions: HepG2, 24 h
HepG2 [23] = assay: Induction of apoptosis in human HepG2 cells assessed as late apoptotic cells co-treated with DMXAA at 1:1 molar ratio after 24 hrs by annexin-V/propidium iodide staining-based flow cytometric method relative to control; format: functional
HepG2 [24] = assay: Induction of apoptosis in human HepG2 cells assessed as ratio of Bax/Bcl-2 co-treated with DMXAA at 1:1 molar ratio after 24 hrs by Western blot method (reference value: 0.23); format: functional
HepG2 [25] = assay: Cell cycle arrest in human HepG2 cells assessed as accumulation at S phase co-treated with DMXAA at 1:1 molar ratio after 28 hrs by propidium iodide staining-based flow cytometric method
HepG2 [26] = assay: Induction of apoptosis in human HepG2 cells assessed as late apoptotic cells co-treated with pyranoxanthone at 1:1 molar ratio after 24 hrs by annexin-V/propidium iodide staining-based flow cytometric method relative to control; format: functional
HepG2 [27] = assay: Induction of apoptosis in human HepG2 cells assessed as total apoptosis rate at 0.2 uM after 24 hrs by annexin-V/propidium iodide staining-based flow cytometric method relative to control; format: functional
K562 [28] = assay: Antiproliferative activity against human K562 cells co-treated with DMXAA at 1:1 molar ratio after 24 hrs by MTT assay; format: functional, cell-based; conditions: K562, 24 h
HepG2 [29] = assay: Induction of apoptosis in human HepG2 cells assessed as downregulation of Bcl-xL expression co-treated with DMXAA at 1:1 molar ratio after 24 hrs by Western blot method; format: functional, cell-based
HepG2 [30] = assay: Induction of apoptosis in human HepG2 cells assessed as increase in cleaved PARP levels co-treated with DMXAA at 1:1 molar ratio after 24 hrs by Western blot method; format: functional, cell-based
[31] = molecular target: T1, Tumour suppressor p53/oncoprotein Mdm2 (Homo sapiens); assay: Inhibition of MDM2/p53 interaction in human HepG2 cells assessed as increase in p53 to MDM2 ratio co-treated with DMXAA at 1:1 molar ratio after 24 hrs by Western blot method (reference value: 0.083); format: cell-based
HepG2 [32] = assay: Induction of apoptosis in human HepG2 cells assessed as increase in cleaved caspase-9 levels co-treated with DMXAA at 1:1 molar ratio after 24 hrs by Western blot method; format: functional, cell-based
MCF7 [33] = assay: Antiproliferative activity against human MCF7 cells co-treated with DMXAA at 1:1 molar ratio after 24 hrs by MTT assay; format: functional, cell-based; conditions: MCF7, 24 h
HepG2 [34] = assay: Induction of apoptosis in human HepG2 cells assessed as increase in cleaved caspase-3 levels co-treated with DMXAA at 1:1 molar ratio after 24 hrs by Western blot method; format: functional, cell-based
HepG2 [35] = assay: Induction of apoptosis in human HepG2 cells assessed as necrotic cells at 0.2 uM after 24 hrs by annexin-V/propidium iodide staining-based flow cytometric method relative to control; format: functional
HepG2 [36] = assay: Induction of apoptosis in human HepG2 cells assessed as upregulation of Bid expression co-treated with DMXAA at 1:1 molar ratio after 24 hrs by Western blot method; format: functional, cell-based
MDA-MB-231 [37] = assay: Antiproliferative activity against human MDA-MB-231 cells co-treated with DMXAA at 1:1 molar ratio after 24 hrs by MTT assay; format: functional, cell-based; conditions: MDA-MB-231, 24 h
[38] = molecular target: T1, Tumour suppressor p53/oncoprotein Mdm2 (Homo sapiens); assay: Inhibition of MDM2/p53 interaction in human HepG2 cells assessed as increase in p53 to MDM2 ratio co-treated with pyranoxanthone at 1:1 molar ratio after 24 hrs by Western blot method (reference value: 0.083); format: cell-based
HepG2 [39] = assay: Induction of apoptosis in human HepG2 cells assessed as early apoptotic cells co-treated with pyranoxanthone at 1:1 molar ratio after 24 hrs by annexin-V/propidium iodide staining-based flow cytometric method relative to control; format: functional
HepG2 [40] = assay: Induction of apoptosis in human HepG2 cells assessed as downregulation of Bcl-xL expression co-treated with pyranoxanthone at 1:1 molar ratio after 24 hrs by Western blot method; format: functional, cell-based
HepG2 [41] = assay: Induction of apoptosis in human HepG2 cells assessed as increase in cleaved caspase-3 levels co-treated with pyranoxanthone at 1:1 molar ratio after 24 hrs by Western blot method; format: functional, cell-based
HepG2 [42] = assay: Cell cycle arrest in human HepG2 cells assessed as accumulation at S phase co-treated with pyranoxanthone at 1:1 molar ratio after 28 hrs by propidium iodide staining-based flow cytometric method
HepG2 [43] = assay: Induction of apoptosis in human HepG2 cells assessed as increase in cleaved caspase-9 levels co-treated with pyranoxanthone at 1:1 molar ratio after 24 hrs by Western blot method; format: functional, cell-based
MCF7 [44] = assay: Antiproliferative activity against human MCF7 cells co-treated with pyranoxanthone at 1:1 molar ratio after 24 hrs by MTT assay; format: functional, cell-based; conditions: MCF7, 24 h
HepG2 [45] = assay: Induction of apoptosis in human HepG2 cells assessed as early apoptotic cells co-treated with DMXAA at 1:1 molar ratio after 24 hrs by annexin-V/propidium iodide staining-based flow cytometric method relative to control; format: functional
MDA-MB-231 [46] = assay: Antiproliferative activity against human MDA-MB-231 cells co-treated with pyranoxanthone at 1:1 molar ratio after 24 hrs by MTT assay; format: functional, cell-based; conditions: MDA-MB-231, 24 h
HepG2 [47] = assay: Antiproliferative activity against human HepG2 cells co-treated with pyranoxanthone at 1:1 molar ratio after 24 hrs by MTT assay; format: functional, cell-based; conditions: HepG2, 24 h
K562 [48] = assay: Antiproliferative activity against human K562 cells co-treated with pyranoxanthone at 1:1 molar ratio after 24 hrs by MTT assay; format: functional, cell-based; conditions: K562, 24 h
HepG2 [49] = assay: Induction of apoptosis in human HepG2 cells assessed as ratio of Bax/Bcl-2 co-treated with pyranoxanthone at 1:1 molar ratio after 24 hrs by Western blot method (reference value: 0.23); format: functional
HepG2 [50] = assay: Induction of apoptosis in human HepG2 cells assessed as increase in cleaved PARP levels co-treated with pyranoxanthone at 1:1 molar ratio after 24 hrs by Western blot method; format: functional, cell-based
HepG2 [51] = assay: Induction of apoptosis in human HepG2 cells assessed as upregulation of Bid expression co-treated with pyranoxanthone at 1:1 molar ratio after 24 hrs by Western blot method; format: functional, cell-based

T1 sequence (P04637 whole entry, looked up): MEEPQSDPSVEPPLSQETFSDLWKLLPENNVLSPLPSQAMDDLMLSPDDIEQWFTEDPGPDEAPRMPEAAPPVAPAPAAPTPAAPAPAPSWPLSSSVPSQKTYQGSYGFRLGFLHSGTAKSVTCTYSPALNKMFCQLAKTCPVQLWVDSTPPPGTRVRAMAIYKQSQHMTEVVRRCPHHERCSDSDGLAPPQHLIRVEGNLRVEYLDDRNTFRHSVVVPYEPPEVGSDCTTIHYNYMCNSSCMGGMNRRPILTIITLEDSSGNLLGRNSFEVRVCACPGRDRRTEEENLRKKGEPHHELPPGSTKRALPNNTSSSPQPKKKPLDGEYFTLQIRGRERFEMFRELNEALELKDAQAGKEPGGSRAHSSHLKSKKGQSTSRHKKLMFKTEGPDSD
T1 sequence (Q00987 whole entry, looked up): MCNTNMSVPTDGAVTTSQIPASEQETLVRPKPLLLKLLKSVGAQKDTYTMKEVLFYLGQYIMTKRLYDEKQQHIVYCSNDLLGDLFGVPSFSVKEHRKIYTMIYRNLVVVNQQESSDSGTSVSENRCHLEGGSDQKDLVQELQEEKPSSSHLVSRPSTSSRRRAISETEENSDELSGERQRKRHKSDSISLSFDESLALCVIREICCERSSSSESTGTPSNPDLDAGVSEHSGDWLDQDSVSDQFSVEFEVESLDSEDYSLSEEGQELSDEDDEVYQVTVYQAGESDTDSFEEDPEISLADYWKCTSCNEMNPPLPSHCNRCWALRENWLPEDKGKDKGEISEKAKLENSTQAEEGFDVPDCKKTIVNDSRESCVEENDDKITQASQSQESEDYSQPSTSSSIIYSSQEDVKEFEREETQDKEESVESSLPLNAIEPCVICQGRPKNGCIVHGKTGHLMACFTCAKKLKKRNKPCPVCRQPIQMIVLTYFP

IC50 (MCF7 [1]) [µM]	IC50 (MDA-MB-231 [2]) [µM]	IC50 (K562 [3]) [µM]	IC50 (HepG2 [4]) [µM]	fold change (FC) [11]	Compound	Ratio (HepG2 [5])	Activity (HepG2 [6])	IC50 (L02 [12]) [µM]	Activity (HepG2 [13])	Activity (HepG2 [14])	Activity (HepG2 [17])	Activity (HepG2 [18])	Activity (HepG2 [19]) [%]	Activity (HepG2 [20]) [%]	Activity (HepG2 [21])	further results
8.72	11.2	15	1.53		Cc1ccc2c(=O)c3cccc(CC(=O)OCCCCCOc4c5c(cc6c(=O)c7ccccc7oc46)CCC(C)(C)O5)c3oc2c1C											
0.534	1.13	9.13	0.216	0.81	Cc1ccc2c(=O)c3cccc(CC(=O)OCCCCCCOc4c5c(cc6c(=O)c7ccccc7oc46)CCC(C)(C)O5)c3oc2c1C	0.87	Active	378 to 452	Active	Active	90%	Active	42	38	Active	Activity (NIH3T3 [7]; mouse, nih3t3, 24 h): Non-Toxic; Ratio IC50 [8]: 2092; Activity (NIH3T3 [9]): Non-Toxic; half-life at 10 µM [10]: 4.2 h; IC50 (L02 [15]): 293 to 352 µM; half-life at 10 µM [16]: 24.8 h
51.7	32.2	32.3	32.7		Cc1ccc2c(=O)c3cccc(CC(=O)OCCCOc4c5c(cc6c(=O)c7ccccc7oc46)CCC(C)(C)O5)c3oc2c1C											
33.2	19.6	20.6	11.9		Cc1ccc2c(=O)c3cccc(CC(=O)OCCCCOc4c5c(cc6c(=O)c7ccccc7oc46)CCC(C)(C)O5)c3oc2c1C											
102	59.3	27.8	40.3	0.19	CC1(C)CCc2cc3c(=O)c4ccccc4oc3c(O)c2O1 [DIHYDRO-12-HYDROXY-2,2-DIMETHYL-2H,6H-PYRANO[3,2-B]XANTHEN-6-ONE]	0.36	Active		Active	Active	Active	Active			Active	IC50 (HepG2 [22]): 21.2 µM; Activity (HepG2 [23]): 46%; Ratio (HepG2 [24]): 0.58; Activity (HepG2 [25]): Active; Activity (HepG2 [26]): 46%; Activity (HepG2 [27]): <10%; IC50 (K562 [28]): 19.1 µM; Activity (HepG2 [29]): Active; Activity (HepG2 [30]): Active; fold change (FC) [31]: 0.67; Activity (HepG2 [32]): Active; IC50 (MCF7 [33]): 11.9 µM; Activity (HepG2 [34]): Active; Activity (HepG2 [35]): <10%; Activity (HepG2 [36]): Active; IC50 (MDA-MB-231 [37]): 12.1 µM
					Cc1ccc2c(=O)c3cccc(CC(=O)O)c3oc2c1C [VADIMEZAN]		Active	101		Active	Active	Active	7	13		fold change (FC) [38]: 0.67; Activity (HepG2 [39]): 15%; IC50 (NIH3T3 [7]; Mus musculus, NIH3T3, 24 h): 67.8 µM; Activity (HepG2 [40]): Active; Activity (HepG2 [41]): Active; Activity (HepG2 [42]): Active; Activity (HepG2 [43]): Active; IC50 (MCF7 [44]): 11.9 µM; Activity (HepG2 [45]): 15%; IC50 (MDA-MB-231 [46]): 12.1 µM; IC50 (HepG2 [47]): 21.2 µM; IC50 (K562 [48]): 19.1 µM; Ratio (HepG2 [49]): 0.58; Activity (HepG2 [50]): Active; Activity (HepG2 [51]): Active
